# Reference: patent US20250154121A1, “CYCLIC(ALKYL)(AMINO)ALKOXY-SUBSTITUTED ARYL-PYRONE COMPOUND AND USE THEREOF” (priority 2022, published 2025)
# Read-outs that look alike come from different tables or passages of the source.
# Tests used:
# [1] = test system: Influenza A (H1N1) virus FM1 strain; experiment: Mouse pneumonia model infected with influenza A (H1N1) virus FM1 strain (lung index); type: in vivo, ICR mice
# Method: ICR mice were taken and randomly divided into: normal control group, model control group, ribavirin control group, compound 4, compound F1, compound F2, and compound F3 according to their weight class, and each drug was given in two dosage groups (10 mice in each group). Except for the normal control group, mice were slightly anesthetized with ether and infected with 15 LD50 H1N1 influenza virus liquid FM1 strain by nasal drops (30 μl per animal). The administration was started on the day of infection at 0.2 ml/10 g by gavage each time once a day for 4 days, and the normal control and model control groups were gavaged with distilled water under the same conditions. The mice were weighed and dissected on Day 5, and the lung was weighed to calculate lung index and lung index inhibition. The results were statistically processed using t-test for comparison between groups.
# (§1) ICR mice were taken and randomly divided by weight class: normal control group, model control group, oseltamivir control group, compound 4, compound F4, compound F5, compound 5, and compound 7 according to their weight class, and each drug was given in two dosage groups (10 mice in each group). Except for the normal control group, mice were slightly anesthetized with ether and infected with 15 LD50 H1N1 influenza virus liquid (FM1/PR8 strain) by nasal drops (30 μl per each animal). The administration was started on the day of infection at 0.2 ml/10 g by gavage each time once a day for 4 days, and the normal control and model control groups were gavaged with distilled water under the same conditions. The mice were weighed and dissected on Day 5, and lung was weighed to calculate lung index and lung index inhibition. The results were statistically processed using t-test for comparison between groups.
# (§2) ICR mice were taken and randomly divided into 9 groups according to the body weight: a normal control group, model control group, oseltamivir control group, and two dosage groups of Compound 9, Compound 12 and Compound 2, 10 mice in each group. Except the normal control group, mice were slightly anesthetized with ether and infected with 15 LD50 H1N1/PR8 influenza virus liquid by nasal drops at 30 μl per mouse. The administration was started on the day of infection, at 0.2 ml/10 g each time by gavage once a day for 4 days, and the normal control and model control groups were gavaged with distilled water under the same conditions. The mice were weighed and dissected on Day 5, and lungs were weighed to calculate lung index and lung index inhibition. The results were statistically processed using t-test for comparison between groups.
# [2] = test system: Influenza A (H1N1) virus PR8 strain; experiment: Mouse pneumonia model infected with influenza A (H1N1) virus PR8 strain (lung index); type: in vivo, ICR mice
# Method: as §1, §2
# [3] = test system: Sendai strain of parainfluenza virus; type: in vivo
# [4] = test system: Human Coronavirus 229E (HCoV-229E); experiment: animal or person; type: in vivo
# [5] = Table 13 (Example 25), 27.5 mg/kg/d gavage for 4 days
# [6] = Table 3 (Example 14), 27.5 mg/kg gavage once a day for 4 days
# [7] = Table 12 (Example 25), 27.5 mg/kg/d gavage for 4 days
# [8] = Table 7 (Example 18), 82.5 mg/kg/d gavage for 4 days
# [9] = Table 11 (Example 24), 82.5 mg/kg/d gavage for 4 days
# [10] = Influenza A virus, H1N1, po, 96 h, Table 2 (Example 14), 20 mg/kg gavage once a day for 4 days, read-out: inhibition rate (%)
# [11] = Influenza A virus, H1N1, po, 96 h, Table 2 (Example 14), 40 mg/kg gavage once a day for 4 days, read-out: inhibition rate (%)
# [12] = Table 2 (Example 14), 20 mg/kg gavage once a day for 4 days
# [13] = Table 2 (Example 14), 40 mg/kg gavage once a day for 4 days
# [14] = Human coronavirus 229E, in Mus musculus, po, 96 h, Table 5 (Example 16), 7.5 mg/kg/d gavage for 4 days, read-out: inhibition rate (%)
# [15] = Human coronavirus 229E, in Mus musculus, po, 96 h, Table 5 (Example 16), 15 mg/kg/d gavage for 4 days, read-out: inhibition rate (%)
# [16] = Human coronavirus 229E, in Mus musculus, po, 96 h, Table 5 (Example 16), 30 mg/kg/d gavage for 4 days, read-out: inhibition rate (%)
# [17] = Table 5 (Example 16), 7.5 mg/kg/d gavage for 4 days
# [18] = Table 5 (Example 16), 15 mg/kg/d gavage for 4 days
# [19] = Table 5 (Example 16), 30 mg/kg/d gavage for 4 days
# [20] = Table 13 (Example 25), 7.5 mg/kg/d gavage for 4 days
# [21] = Table 13 (Example 25), 15 mg/kg/d gavage for 4 days
# [22] = Table 11 (Example 24), 7.5 mg/kg/d gavage for 4 days
# [23] = Table 11 (Example 24), 15 mg/kg/d gavage for 4 days
# [24] = Table 12 (Example 25), 7.5 mg/kg/d gavage for 4 days
# [25] = Table 12 (Example 25), 15 mg/kg/d gavage for 4 days
structure (smiles),measurement,setting,value
"CCOC(=O)C1=C[C@@H](OC(CC)CC)[C@H](NC(C)=O)[C@@H](N)C1 [Oseltamivir, Oseltamivir phosphate, reference compound]",inhibition in vivo at 27.5 mg/kg,"[1]; Influenza A virus, H1N1, po, 96 h, Table 2 (Example 14), 27.5 mg/kg gavage once a day for 4 days, read-out: inhibition rate (%)",62.1%
same,lung index,"[1]; Table 2 (Example 14), 27.5 mg/kg gavage once a day for 4 days",0.86 ± 0.21
same,inhibition rate %,[1]; [5],64.57%
same,lung index,[1]; [5],0.74 ± 0.065 Lung weight * 100/body weight
same,inhibition rate %,[2]; [6],58.89%
same,inhibition rate %,[2]; [7],88.97%
same,lung index,[2]; [7],0.71 ± 0.069 Lung weight * 100/body weight
"NC(=O)c1ncn([C@@H]2O[C@H](CO)[C@@H](O)[C@H]2O)n1 [Ribavirin, ribavirin, reference compound]",inhibition in vivo at 82.5 mg/kg,"[1]; Influenza A virus, H1N1, po, 96 h, Table 1 (Example 13), 82.5 mg/kg gavage once a day for 4 days, read-out: inhibition rate (%)",49.6%
same,lung index,"[1]; Table 1 (Example 13), 82.5 mg/kg gavage once a day for 4 days",0.96 ± 0.16
same,inhibition rate %,[3]; [8],42.06%
same,lung index,[3]; [8],0.70 ± 0.03 lung weight/100 g body weight
same,inhibition rate %,[3]; [9],57.66%
same,lung index,[3]; [9],0.77 ± 0.04 Lung weight * 100/body weight
same,inhibition rate %,[2]; [6],58.89%
same,lung index,[2]; [6],0.84 ± 0.10
"COc1ccc(-c2coc3cc(O[C@@H]4OC(CO)[C@@H](O)C(O)C4O)ccc3c2=O)cc1O (stereo partly shown) [Compound F2, reference compound]",inhibition in vivo at 25 mg/kg,"[1]; Influenza A virus, H1N1, po, 96 h, Table 1 (Example 13), 25 mg/kg gavage once a day for 4 days, read-out: inhibition rate (%)",17.1%
same,inhibition in vivo at 50 mg/kg,"[1]; Influenza A virus, H1N1, po, 96 h, Table 1 (Example 13), 50 mg/kg gavage once a day for 4 days, read-out: inhibition rate (%)",19.1%
same,lung index,"[1]; Table 1 (Example 13), 25 mg/kg gavage once a day for 4 days",1.13 ± 0.18
same,lung index,"[1]; Table 1 (Example 13), 50 mg/kg gavage once a day for 4 days",1.12 ± 0.17
same,inhibition in vivo at 40 mg/kg/day,"[4]; Human coronavirus 229E, in Mus musculus, po, 96 h, Table 4 (Example 15), 40 mg/kg/d gavage for 4 days, read-out: inhibition rate (%)",1.45%
same,inhibition in vivo at 50 mg/kg/day,"[4]; Human coronavirus 229E, in Mus musculus, po, 96 h, Table 4 (Example 15), 50 mg/kg/d gavage for 4 days, read-out: inhibition rate (%)",10.6%
same,lung index,"[4]; Table 4 (Example 15), 40 mg/kg/d gavage for 4 days",0.84 ± 0.05 g lung weight × 100/g body weight
same,lung index,"[4]; Table 4 (Example 15), 50 mg/kg/d gavage for 4 days",0.82 ± 0.06 g lung weight × 100/g body weight
"CC(=O)NCCOc1ccc2c(=O)c(-c3ccccc3)coc2c1 [Compound F5, reference compound]",inhibition in vivo at 20 mg/kg,[1]; [10],-31.3%
same,inhibition in vivo at 40 mg/kg,[1]; [11],0.35%
same,lung index,[1]; [12],1.22 ± 0.11
same,lung index,[1]; [13],1.10 ± 0.24
same,inhibition in vivo at 7.5 mg/kg/day,[4]; [14],-41%
same,inhibition in vivo at 15 mg/kg/day,[4]; [15],-72%
same,inhibition in vivo at 30 mg/kg/day,[4]; [16],17%
same,lung index,[4]; [17],0.82 ± 0.08 g lung weight × 100/g body weight
same,lung index,[4]; [18],0.85 ± 0.08 g lung weight × 100/g body weight
same,lung index,[4]; [19],0.77 ± 0.11 g lung weight × 100/g body weight
COc1ccc(-c2coc3cc(OCCNC4CC4)ccc3c2=O)cc1 [Compound 2],inhibition rate %,[1]; [20],26.60%
same,lung index,[1]; [20],0.77 ± 0.074 Lung weight * 100/body weight
same,inhibition rate %,[1]; [21],72.90%
same,lung index,[1]; [21],0.73 ± 0.060 Lung weight * 100/body weight
same,inhibition rate %,[3]; [22],−18.32%
same,lung index,[3]; [22],0.86 ± 0.04 Lung weight * 100/body weight
same,inhibition rate %,[3]; [23],3.27%
same,lung index,[3]; [23],0.84 ± 0.07 Lung weight * 100/body weight
same,inhibition rate %,[2]; [24],99.05%
same,lung index,[2]; [24],0.70 ± 0.110 Lung weight * 100/body weight
same,inhibition rate %,[2]; [25],60.90%
same,lung index,[2]; [25],0.74 ± 0.091 Lung weight * 100/body weight
CC1(NCCOc2ccc3c(=O)c(-c4ccccc4)coc3c2)CC1 [Compound 5],inhibition in vivo at 20 mg/kg,[1]; [10],-25.1%
same,inhibition in vivo at 40 mg/kg,[1]; [11],8.44%
same,lung index,[1]; [12],1.20 ± 0.16
same,lung index,[1]; [13],1.07 ± 0.21
same,inhibition in vivo at 7.5 mg/kg/day,[4]; [14],22.7%
same,inhibition in vivo at 15 mg/kg/day,[4]; [15],-17%
same,inhibition in vivo at 30 mg/kg/day,[4]; [16],-7%
same,lung index,[4]; [17],0.76 ± 0.08 g lung weight × 100/g body weight
same,lung index,[4]; [18],0.80 ± 0.10 g lung weight × 100/g body weight
same,lung index,[4]; [19],0.79 ± 0.08 g lung weight × 100/g body weight
